# From US4879382A, “Pyrido(3,4-f)pyrrolo(1,2-b)(1,2,5)triazepines” (Hoechst-Roussel Pharmaceuticals, Inc., priority 1988, dated 1989)
# What was measured:
# [1] = tetrabenazine induced ptosis assay (antidepressant activity); assay type: in vivo, mice (Charles River, CD-1); settings: mice; for ED50: Mus musculus, ip, dose for 50% inhibition of tetrabenazine-induced ptosis
# Procedure: Several of the compounds of this invention are also useful as antidepressants by virtue of their ability to elicit an antidepressant response in mammals. Antidepressant activity is determined by the tetrabenazine induced ptosis assay in mice, [International Journal of Neuropharmacology, 8, 72 (1969], a standard assay for the determination of antidepressant activity. […] Tetrabenazine methanesulfonate (76.78% as the free base) is dissolved in distilled water and the concentration of the solution is adjusted so that the dose, administered intraperitoneally (i.p.) to the animals, is 40 mg of tetrabenazine base per kg of animal body weight. The test compound is administered intraperitoneally (i.p.) or orally to the subject animals, and the tetrabenazine solution is administered 30 minutes or 60 minutes, respectively, thereafter. Tetrabenazine solution and the solvent used to dissolve, or suspend, the test compounds are administered by the same route and at the same intervals as the test compounds to a control group. […] The vehicle-control group score is used as a determination of the validity of each test. The results are discarded and the test is repeated, if the control score is determined to be less than 17. […] A linear-regression analysis is used to estimate ED50 values and 95% confidence limits.
# [2] = dark avoidance assay (memory enhancing activity); assay type: in vivo; settings: mice
# Procedure: Pursuant to the dark avoidance assay, mice are tested for their ability to remember an unpleasant stimulus for a period of 24 hours. A mouse is placed in a chamber that contains a dark compartment; a strong incandescent light drives it to the dark compartment, where an electric shock is administered through metal plates on the floor. The animal is removed from the testing apparatus and tested again, 24 hours later, for the ability to remember the electric shock.
# [3] = phenyl-p-quinone writhing assay (analgesic activity); assay type: in vivo, mice (Charles River, CD-1); settings: mice
# Procedure: The compounds of this invention are useful as analgesic agents due to their ability to alleviate pain in mammals. The procedure employed to determine analgetic utility is a modification of the phenyl-p-quinone writhing assay in mice, a standard assay for analgetic activity [Proc. Soc. Exptl. Med., 95 729 (1957)]. Pursuant to the modified procedure phenyl-p-benzoquinone (Eastman, 12.5 mg) is dissolved in 5 ml of 95% ethanol and the solution is diluted to a total volume of 100 ml with distilled water. The solution is administered to the subject mice intraperitoneally at a dose of 10 ml per kg of body weight. A characteristic "writhe", an inward rotation of one or more feet with twisting and turning of the trunk, drawing in of the abdominal wall, lordosis and arching of the back, is produced.
# A total of 28 male mice (Charles River, CD-1), weighing 18 to 30 grams, are employed for a time response. The subject animals receive food and water ad libitum. Test compounds are dissolved in distilled water, or suspended in distilled water containing one drop of a suitable surfactant, such as Tween-80.
# Four groups of five animals (20 animals) are given the test compound subcutaneously (s.c.) or perorally (p.o.) at 15, 30, 45 and 60 minutes prior to administration of the phenyl-p-benzoquinone. A control group (2 animals per group) receive an equal volume of the vehicle. After the administration of the phenyl-p-benzoquinone, the mice are placed separately in one liter beakers, and after five minutes, are observed for ten minutes. The number of writhes for each animal is recorded. Thefollowing formula is used to compute the percent inhibition: [formula]
# A dose range determination is run in the same manner as the time response except 10 animals per group are tested at the peak time of test drug activity. Fifty animals, 4 test drug groups, and a vehicle control are employed. Animals are dose and tested in a randomized manner. The time period with the greatest percent of inhibition is considered the peak time.
# [4] = adjuvant-induced polyarthritis syndrome in rats assay (antiinflammatory activity); assay type: in vivo, rats (Charles River-Wistar Lewis); settings: Rattus norvegicus, po, 504 h, read-out: Non-Injected Paw ED50
# Procedure: Several of the compounds of this invention have utility as antiinflammatory agents. Antiinflammatory activity was measured pursuant to the adjuvant-induced polyarthritis syndrome in rats assay by a procedure similar to that described by C. M. Pearson and F. D. Wood, Arthritis and Rheumatism, 2, 440 (1959).
# Groups of 10 male Charles River-Wistar Lewis rats weighing 150 to 175 g were individually housed and maintained on a regular rat chow diet. Water was given ad libitum. The adjuvant was prepared by suspending 75 mg of Mycobacterium butyricum (Difco Laboratories, Detroit, Mich.) in 10 ml of white paraffin oil with continuous stirring for 2 hours at room temperature prior to administration. Test compounds are prepared by suspending the drug in water, adding one drop of Tween 80 per 10 ml of suspension, and homogenizing. The adjuvant suspension (0.1 ml) was injected into the footpad of the left hind paw of the rat. Test compound suspensions were administered orally (10 ml/kg) the day before adjuvant suspension injection and the administration was continued daily for 21 days. […] Injected and non-injected paw volumes were determined on the day the adjuvant suspension was given, and on subsequent days thereafter (usually days 5, 10, 18, and 21) by the method of C. […]
# The percent inhibition of paw volume (injected and non-injected paw) were calculated by the following formula: [formula] […]
smiles,measurement,setting,value
"CC1Nc2cnccc2N(C)n2cccc21 (centres unmarked) [10,11-Dihydro-5,10-dimethyl-5H-pyrido[3,4-f]pyrrolo[1,2-b][1,2,5]triazepine]",inhibition of ptosis,[1]; at a dose of 10 mg/kg i.p.,47%
same,% of Animals With Scopolamine Induced Memory Deficit Reversed,[2]; 2.5 mg/kg s.c.,33%
"CN1c2ccncc2NCc2cccn21 [10,11-Dihydro-5-methyl-5H-pyrido[3,4-f]pyrrolo[1,2-b][1,2,5]triazepine]",% Inhibition of Writhing,[3]; at a dose of 12.6 mg/kg s.c. (footnote 1),50%
"CN(C)CCCC1Nc2cnccc2N(C)n2cccc21 (centres unmarked) [10,11-Dihydro-5-methyl-10-[3-(N,N-dimethylamino)propyl]-5H-pyrido[3,4-f]pyrrolo[1,2-b][1,2,5]triazepine]","% Inhibition of Writhing at a Screening Dose of 20 mg/kg, s.c.",[3],57%
same,% of Animals With Scopolamine Induced Memory Deficit Reversed,[2]; 1.25 mg/kg s.c.,27%
"CN1CCC(C2Nc3cnccc3N(C)n3cccc32)CC1 (centres unmarked) [10,11-Dihydro-5-methyl-10-[(1-methyl)piperidin-4-yl]-5H-pyrido[3,4-f]pyrrolo[1,2-b][1,2,5]triazepine]",ED50,"[4]; rats, p.o., daily for 21 days, dose for 50% inhibition of adjuvant induced inflammation, non-injected paw",53.7 mg/kg
same,ED50,[1],15.7 mg/kg
"CNC(=O)N1Cc2cccn2N(C)c2ccncc21.O=C(O)/C=C\C(=O)O [10,11-Dihydro-5-methyl-11-methylcarbamyl-5H-pyrido[3,4-f]pyrrolo[1,2-b][1,2,5]triazepine maleate]","% Inhibition of Writhing at a Screening Dose of 20 mg/kg, s.c.",[3],44%
"CN1c2ccncc2NC(c2ccccc2)c2cccn21 (centres unmarked) [10,11-dihydro-5-methyl-10-phenyl-5H-pyrido[3,4-f]pyrrolo[1,2-b][1,2,5]triazepine]","% Inhibition of Writhing at a Screening Dose of 20 mg/kg, s.c.",[3],47%
"CN1c2ccncc2N(C=O)Cc2cccn21.O=C(O)/C=C\C(=O)O [11-Formyl-10,11-dihydro-5-methyl-5H-pyrido[3,4-f]pyrrolo[1,2-b][1,2,5]triazepine maleate]","% Inhibition of Writhing at a Screening Dose of 20 mg/kg, s.c.",[3],47%
"CC(=O)Oc1ccccc1C(=O)O [Aspirin, reference compound]",ED50,[4],110 mg/kg
"CC(C)=CCN1CCC2(C)c3cc(O)ccc3CC1C2C (centres unmarked) [Pentazocine, reference compound]",% Inhibition of Writhing,[3]; at a dose of 1.3 mg/kg s.c. (footnote 2),50%
"CN(C)CCC=C1c2ccccc2CCc2ccccc21 [amitryptyline, reference compound]",ED50,[1],1.5 mg/kg
"CNC(=O)Oc1ccc2c(c1)[C@]1(C)CCN(C)[C@@H]1N2C [physostigmine, reference compound]",% of Animals With Scopolamine Induced Memory Deficit Reversed,[2]; 0.31 mg/kg s.c.,20%
